A value given as a limit tells only on which side of the number the result lay.

The subject of one assay is Phakopsora pachyrhizi. The experiment in a line: Phakopsora pachyrhizi Test on Soybean (preventive activity, greenhouse). It is filed as in vivo. As to conditions: preventive spray on young Soybean plants, inoculated one day after treatment, rated 3, 7, 10 and 15 days after application, read-out: Efficacy (% control), disease severity compared to the untreated check. The procedure: Compounds were dissolved in 2% dimethyl sulfoxide/acetone and then mixed with water containing an emulsifier to a calibrated spray volume of 50 mL. This 50 mL spray solution was poured into spray bottles for further applications. To test the preventive activity of compounds, healthy young Soybean plants raised in the greenhouse were sprayed with the active compound preparation at the stated application rates inside the spray cabinets using hollow cone nozzles. One day after treatment, the plants were inoculated with a spore suspension containing 2×10^5 Phakopsora pachyrhizi conidia. The inoculated plants were then kept in a greenhouse chamber at 22-24° C. temperature and 80-90% relative humidity for disease expression. A visual assessment of the compound's performance was carried out by rating the disease severity (0-100% scale) on treated plants 3, 7, 10 and 15 days after application. Efficacy (% control) of the compounds was calculated by comparing the disease rating in the treatment with the one of the untreated control. The sprayed plants were also assessed for plant compatibility by recording symptoms like necrosis, chlorosis and stunting.
Turning to `COc1ccc(NC(=O)c2cn3ccc(-c4noc(C(F)(F)F)n4)cc3n2)cc1` [Compound 2, N-(4-methoxyphenyl)-7-(5-(trifluoromethyl)-1,2,4-oxadiazol-3-yl)imidazo[1,2-a]pyridine-2-carboxamide], the pest or weed control at 500 ppm was not below 70%.
`O=C(NCc1cn2cc(-c3noc(C(F)(F)F)n3)ccc2n1)c1cccc(Cl)c1` [Compound 85, 3-chloro-N-((6-(5-(trifluoromethyl)-1,2,4-oxadiazol-3-yl)imidazo[1,2-a]pyridin-2-yl)methyl)benzamide]: the pest or weed control at 500 ppm is not below 70%.
On to `O=C(NCc1cn2cc(-c3noc(C(F)(F)F)n3)ccc2n1)c1ccc(OC(F)(F)F)cc1` [Compound 89, 4-(trifluoromethoxy)-N-((6-(5-(trifluoromethyl)-1,2,4-oxadiazol-3-yl)imidazo[1,2-a]pyridin-2-yl)methyl)benzamide], for which the pest or weed control at 500 ppm was not below 70%.
`O=C(Cc1ccccc1)NCc1cn2cc(-c3noc(C(F)(F)F)n3)ccc2n1` [Compound 94, 2-phenyl-N-((6-(5-(trifluoromethyl)-1,2,4-oxadiazol-3-yl)imidazo[1,2-a]pyridin-2-yl)methyl)acetamide]: the pest or weed control at 500 ppm is not below 70%.
On the same count and under the same terms, under `O=C(NCc1cn2cc(-c3noc(C(F)(F)F)n3)ccc2n1)c1ccncc1` [Compound 99, N-((6-(5-(trifluoromethyl)-1,2,4-oxadiazol-3-yl)imidazo[1,2-a]pyridin-2-yl)methyl)isonicotinamide] stands not below 70%.
Still for that read-out and setting: under `COc1ccc(SCc2cn3cc(-c4noc(C(F)(F)F)n4)ccc3n2)cc1` [Compound 100, 3-(2-(((4-methoxyphenyl)thio)methyl)imidazo[1,2-a]pyridin-6-yl)-5-(trifluoromethyl)-1,2,4-oxadiazole] stands not below 70%.
As for `FC(F)(F)c1nc(-c2ccc3nc(CSc4ccccc4)cn3c2)no1` [Compound 101, 3-(2-((phenylthio)methyl)imidazo[1,2-a]pyridin-6-yl)-5-(trifluoromethyl)-1,2,4-oxadiazole], the pest or weed control at 500 ppm was not below 70%.
Still for that read-out and setting: under `Fc1cccc(SCc2cn3cc(-c4noc(C(F)(F)F)n4)ccc3n2)c1` [Compound 104, 3-(2-(((3-fluorophenyl)thio)methyl)imidazo[1,2-a]pyridin-6-yl)-5-(trifluoromethyl)-1,2,4-oxadiazole] stands not below 70%; under `Fc1ccc(SCc2cn3cc(-c4noc(C(F)(F)F)n4)ccc3n2)cc1` [Compound 105, 3-(2-(((4-fluorophenyl)thio)methyl)imidazo[1,2-a]pyridin-6-yl)-5-(trifluoromethyl)-1,2,4-oxadiazole], not below 70%; under `Fc1ccccc1SCc1cn2cc(-c3noc(C(F)(F)F)n3)ccc2n1` [Compound 106, 3-(2-(((2-fluorophenyl)thio)methyl)imidazo[1,2-a]pyridin-6-yl)-5-(trifluoromethyl)-1,2,4-oxadiazole], not below 70%.
Regarding `CCCSCc1cn2cc(-c3noc(C(F)(F)F)n3)ccc2n1` [Compound 107, 3-(2-((propylthio)methyl)imidazo[1,2-a]pyridin-6-yl)-5-(trifluoromethyl)-1,2,4-oxadiazole], the pest or weed control at 500 ppm is not below 70%.
In the case of `COc1ccc(CSCc2cn3cc(-c4noc(C(F)(F)F)n4)ccc3n2)cc1` [Compound 109, 3-(2-(((4-methoxybenzyl)thio)methyl)imidazo[1,2-a]pyridin-6-yl)-5-(trifluoromethyl)-1,2,4-oxadiazole], the pest or weed control at 500 ppm is not below 70%.
`FC(F)(F)c1nc(-c2ccc3nc(CSc4ccc(Cl)c(Cl)c4)cn3c2)no1` [Compound 110, 3-(2-(((3,4-dichlorophenyl)thio)methyl)imidazo[1,2-a]pyridin-6-yl)-5-(trifluoromethyl)-1,2,4-oxadiazole]: the pest or weed control at 500 ppm is not below 70%.
Turning to `O=S(=O)(Cc1cn2cc(-c3noc(C(F)(F)F)n3)ccc2n1)c1cccc(F)c1` [Compound 120, 3-(2-(((3-fluorophenyl)sulfonyl)methyl)imidazo[1,2-a]pyridin-6-yl)-5-(trifluoromethyl)-1,2,4-oxadiazole], the pest or weed control at 500 ppm was not below 70%.
As for `O=S(=O)(Cc1cn2cc(-c3noc(C(F)(F)F)n3)ccc2n1)c1ccc(F)cc1` [Compound 121, 3-(2-(((4-fluorophenyl)sulfonyl)methyl)imidazo[1,2-a]pyridin-6-yl)-5-(trifluoromethyl)-1,2,4-oxadiazole], the pest or weed control at 500 ppm was not below 70%.
On the same count and under the same terms, as for `COc1ccc(CS(=O)(=O)Cc2cn3cc(-c4noc(C(F)(F)F)n4)ccc3n2)cc1` [Compound 122, 3-(2-(((4-methoxybenzyl)sulfonyl)methyl)imidazo[1,2-a]pyridin-6-yl)-5-(trifluoromethyl)-1,2,4-oxadiazole], the figure is not below 70%; as for `[O-][S+](Cc1cn2cc(-c3noc(C(F)(F)F)n3)ccc2n1)c1ccc(Cl)c(Cl)c1` (centres unmarked) [Compound 126, 3-(2-(((3,4-dichlorophenyl)sulfinyl)methyl)imidazo[1,2-a]pyridin-6-yl)-5-(trifluoromethyl)-1,2,4-oxadiazole], not below 70%.
For the compound `[O-][S+](Cc1cn2cc(-c3noc(C(F)(F)F)n3)ccc2n1)c1cccc(Cl)c1` (centres unmarked) [Compound 127, 3-(2-(((3-chlorophenyl)sulfinyl)methyl)imidazo[1,2-a]pyridin-6-yl)-5-(trifluoromethyl)-1,2,4-oxadiazole], the pest or weed control at 500 ppm is not below 70%.
The same measure, in the same setting: as for `CS(=O)(=NC(=O)Cc1cn2cc(-c3noc(C(F)(F)F)n3)ccc2n1)c1ccccc1` (centres unmarked) [Compound 129, N-(methyl(oxo)(phenyl)-λ^6-sulfanylidene)-2-(6-(5-(trifluoromethyl)-1,2,4-oxadiazol-3-yl)imidazo[1,2-a]pyridin-2-yl)acetamide], the figure is not below 70%; as for `CS(=O)(=NC(=O)Cc1cn2cc(-c3noc(C(F)(F)F)n3)ccc2n1)c1ccccc1F` (centres unmarked) [Compound 130, N-((2-fluorophenyl)(methyl)(oxo)-λ^6-sulfaneylidene)-2-(6-(5-(trifluoromethyl)-1,2,4-oxadiazol-3-yl)imidazo[1,2-a]pyridin-2-yl)acetamide], not below 70%.
For the compound `N=S(=O)(Cc1cn2ccc(-c3noc(C(F)(F)F)n3)cc2n1)c1ccccc1` (centres unmarked) [Compound 164, imino(phenyl)((7-(5-(trifluoromethyl)-1,2,4-oxadiazol-3-yl)imidazo[1,2-a]pyridin-2-yl)methyl)-λ^6-sulfanone], the pest or weed control at 500 ppm was not below 70%.
Same read-out and setting: as for `COc1ccc(S(=N)(=O)Cc2cn3ccc(-c4noc(C(F)(F)F)n4)cc3n2)cc1` (centres unmarked) [Compound 165, imino(4-methoxyphenyl)((7-(5-(trifluoromethyl)-1,2,4-oxadiazol-3-yl)imidazo[1,2-a]pyridin-2-yl)methyl)-λ^6-sulfanone], the figure is not below 70%; as for `N=S(=O)(Cc1cn2ccc(-c3noc(C(F)(F)F)n3)cc2n1)c1ccc(Cl)cc1` (centres unmarked) [Compound 166, (4-chlorophenyl)(imino)((7-(5-(trifluoromethyl)-1,2,4-oxadiazol-3-yl)imidazo[1,2-a]pyridin-2-yl)methyl)-λ^6-sulfanone], not below 70%.

The next assay concerns Alternaria solani. The experiment in a line: Alternaria solani (Early Blight of Tomato/Potato): radial mycelial growth on potato dextrose agar. It is filed as cell-based. As to conditions: 168 h, potato dextrose agar, 25° C., 60% relative humidity, seven days, read-out: control (radial growth compared to the untreated check). The procedure: Compounds were dissolved in 0.3% dimethyl sulfoxide and then added to potato dextrose agar medium just prior to dispensing it into petri dishes. 5 mL medium with the compound in the desired concentration was dispensed into 60 mm sterile petri-plates. After solidification each plate was seeded with a 5 mm size mycelial disc taken from the periphery of an actively growing virulent culture plate. Plates were incubated in growth chambers at 25° C. temperature and 60% relative humidity for seven days and then the radial growth was measured and compared to that of the untreated control. Compounds 2 85 89 92 94 108 113 114 131 138 142 143
For the compound `COc1ccc(NC(=O)c2cn3ccc(-c4noc(C(F)(F)F)n4)cc3n2)cc1` [Compound 2, N-(4-methoxyphenyl)-7-(5-(trifluoromethyl)-1,2,4-oxadiazol-3-yl)imidazo[1,2-a]pyridine-2-carboxamide], the inhibition of growth at 300 ppm is not below 70%.
As for `O=C(NCc1cn2cc(-c3noc(C(F)(F)F)n3)ccc2n1)c1cccc(Cl)c1` [Compound 85, 3-chloro-N-((6-(5-(trifluoromethyl)-1,2,4-oxadiazol-3-yl)imidazo[1,2-a]pyridin-2-yl)methyl)benzamide], the inhibition of growth at 300 ppm was not below 70%.
Same read-out and setting: under `O=C(NCc1cn2cc(-c3noc(C(F)(F)F)n3)ccc2n1)c1ccc(OC(F)(F)F)cc1` [Compound 89, 4-(trifluoromethoxy)-N-((6-(5-(trifluoromethyl)-1,2,4-oxadiazol-3-yl)imidazo[1,2-a]pyridin-2-yl)methyl)benzamide] stands not below 70%; under `O=C(Cc1ccccc1)NCc1cn2cc(-c3noc(C(F)(F)F)n3)ccc2n1` [Compound 94, 2-phenyl-N-((6-(5-(trifluoromethyl)-1,2,4-oxadiazol-3-yl)imidazo[1,2-a]pyridin-2-yl)methyl)acetamide], not below 70%; under `FC(F)(F)c1nc(-c2ccc3nc(CSCc4ccccc4)cn3c2)no1` [Compound 108, 3-(2-((benzylthio)methyl)imidazo[1,2-a]pyridin-6-yl)-5-(trifluoromethyl)-1,2,4-oxadiazole], not below 70%.
The same measure, in the same setting: as for `CS(=O)(=NC(=O)Cc1cn2cc(-c3noc(C(F)(F)F)n3)ccc2n1)c1cccc(F)c1` (centres unmarked) [Compound 131, N-((3-fluorophenyl)(methyl)(oxo)-λ^6-sulfaneylidene)-2-(6-(5-(trifluoromethyl)-1,2,4-oxadiazol-3-yl)imidazo[1,2-a]pyridin-2-yl)acetamide], the figure is not below 70%; as for `CS(=O)(=NC(=O)Cc1cn2cc(-c3noc(C(F)(F)F)n3)ccc2n1)c1ccc(Cl)c(Cl)c1` (centres unmarked) [Compound 143, N-((3,4-dichlorophenyl)(methyl)(oxo)-λ^6-sulfaneylidene)-2-(6-(5-(trifluoromethyl)-1,2,4-oxadiazol-3-yl)imidazo[1,2-a]pyridin-2-yl)acetamide], not below 70%.
Consider `Cc1ccccc1S(C)(=O)=NC(=O)Cc1cn2cc(-c3noc(C(F)(F)F)n3)ccc2n1` (centres unmarked) [Compound 148, N-(methyl(oxo)(o-tolyl)-λ^6-sulfaneylidene)-2-(6-(5-(trifluoromethyl)-1,2,4-oxadiazol-3-yl)imidazo[1,2-a]pyridin-2-yl)acetamide], for which the inhibition of growth at 300 ppm is not below 70%.
Same read-out and setting: under `CS(=O)(=NC(=O)Cc1cn2cc(-c3noc(C(F)(F)F)n3)ccc2n1)c1cccc(Cl)c1` (centres unmarked) [Compound 149, N-((3-chlorophenyl)(methyl)(oxo)-λ^6-sulfaneylidene)-2-(6-(5-(trifluoromethyl)-1,2,4-oxadiazol-3-yl)imidazo[1,2-a]pyridin-2-yl)acetamide] stands not below 70%.

The values are drawn from patent publication US20220151236A1, “NOVEL OXADIAZOLE COMPOUNDS FOR CONTROLLING OR PREVENTING PHYTOPATHOGENIC FUNGI” (PI INDUSTRIES LTD., priority 2019, published 2022).
